According to US7071293B1, “Alpha helical peptides with broad spectrum antimicrobial activity that are insensitive to salt” (priority 1999, dated 2006):
Where two headings read alike, the source gives them in different places. Ends that are not written are not given here.

Key:
P. aeruginosa PAO1 [1] = details: avg ± sem
MRSA ATCC 33591 = details: for MIC MRSA [NaCl] High / MIC MRSA [NaCl] Low: ATCC 33591, pH 7.4
E. coli DH5α = details: for EC50: DH5α; for EC50 E. coli DH5α: ionic strength 25 mM, avg ± sem
P. aeruginosa MR 3007 = details: for MIC P. aeruginosa [NaCl] High / MIC P. aeruginosa [NaCl] Low: MR 3007, pH 7.4
S. aureus 930918-3 = details: for MIC S. aureus [NaCl] High / MIC S. aureus [NaCl] Low: 930918-3, pH 7.4
E. coli ML-35p = details: for MIC E. coli [NaCl] High: high salt underlay (10 mM sodium phosphate buffer +100 mM NaCl, pH 7.4); for MIC E. coli [NaCl] High / MIC E. coli [NaCl] Low: Table 13; for MIC E. coli [NaCl] Low: low salt underlay (10 mM sodium phosphate buffer, pH 7.4); for E. coli ML-35p MIC, 0 mM NaCl: underlay 0 mM NaCl; for E. coli ML-35p MIC, 0 mM NaCl / E. coli ML-35p MIC, 175 mM NaCl: Table 15; for E. coli ML-35p MIC, 175 mM NaCl: underlay 175 mM NaCl
P. aeruginosa PAO1 [2] = assay: Relative time for killing (luminescence measured at intervals); format: cell-based; details: peptide at ten times its EC50 (SMAP29X-18D 15.7 X, SMAP29X-14A 17.4 X), 25 mM ionic strength
L. monocytogenes EGD = assay: Two stage radial diffusion assay (MIC); format: cell-based; design: unit not given here; details: underlay 0 mM NaCl
B. cepacia ATCC 25416 = assay: Two stage radial diffusion assay (MIC); format: cell-based; design: unit not given here; details: underlay 0 mM NaCl
N. gonorrhoeae = assay: Two stage radial diffusion assay (MIC); format: cell-based; design: unit not given here; details: done only at 100 mM NaCl; for N. gonorrhoeae F 62 (serum-sensitive): strain F 62 (serum-sensitive); for N. gonorrhoeae FA 19 (serum-resistant): strain FA 19 (serum-resistant)

Substance	EC50 P. aeruginosa PAO1 (P. aeruginosa PAO1 [1]; ionic strength 25 mM)	EC50 P. aeruginosa PAO1 (P. aeruginosa PAO1 [1]; ionic strength 175 mM)	MIC MRSA [NaCl] High (MRSA ATCC 33591)	MIC MRSA [NaCl] Low (MRSA ATCC 33591)	EC50 (E. coli DH5α)	EC50 E. coli DH5α (E. coli DH5α)	MIC P. aeruginosa [NaCl] High (P. aeruginosa MR 3007)	MIC P. aeruginosa [NaCl] Low (P. aeruginosa MR 3007)	MIC S. aureus [NaCl] High (S. aureus 930918-3)	MIC S. aureus [NaCl] Low (S. aureus 930918-3)	MIC E. coli [NaCl] High (E. coli ML-35p)	MIC E. coli [NaCl] Low (E. coli ML-35p)	L. monocytogenes in underlays of low, normal and high salinity, 0 mM NaCl (L. monocytogenes EGD)	MRSA ATCC 33591 MIC, 0 mM NaCl (MRSA ATCC 33591)	P. aeruginosa MR-3007 MIC, 0 mM NaCl (P. aeruginosa MR 3007)	B. cepacia ATCC 25416 in underlays of low, normal and high salinity, 0 mM NaCl (B. cepacia ATCC 25416)	S. aureus 930918-3 MIC, 0 mM NaCl (S. aureus 930918-3)	N. gonorrhoeae F 62 (serum-sensitive) (N. gonorrhoeae)	N. gonorrhoeae FA 19 (serum-resistant) (N. gonorrhoeae)	E. coli ML-35p MIC, 0 mM NaCl (E. coli ML-35p)	further results
GLRKRLRKFRNKIKEKLKKIGQKIQGLLPKLAPRTDY [CAP 18]	0.98 ± 0.24 mg/L	0.50 ± 0.10 mg/L	6.1 mg/L	8.2 mg/L	0.15 ± 0.02 µM	0.69 ± 0.08 mg/L	1.6 mg/L	0.2 mg/L	2.8 mg/L	1.8 mg/L	0.4 mg/L	0.2 mg/L	–	–	–	–	–	–	–	–	Half-time of Killing (min. avg. ± sem) (P. aeruginosa PAO1 [2]): 4.0 ± 1.4 min
RKFRNKIKEKLKKIG [Peptide 24]	–	–	–	–	–	–	–	–	–	–	–	–	24.1	>250 mg/L	5.1 mg/L	>250	19.5 mg/L	>250	>250	9.7 mg/L	–
GLRKRLRKFRNKIKEKLKKIGQKIQGLLPKLAPRTDY [Peptide 18]	–	–	–	–	–	–	–	–	–	–	–	–	0.6	8.2 mg/L	2.1 mg/L	>79.1	1.8 mg/L	0.7	0.6	2.8 mg/L	P. aeruginosa PA-01 MIC, 0 mM NaCl (P. aeruginosa PA-01): 0.88 mg/L; E. coli DH-5α MIC, 0 mM NaCl (E. coli DH-5α; DH-5α): 0.84 mg/L
RKRLRKFRNKIKEKLKKIGQKI [Peptide 21]	–	–	–	–	–	–	–	–	–	–	–	–	7.0	8.1 mg/L	0.2 mg/L	>250	7.9 mg/L	22.0	>250	0.2 mg/L	–
LRKFRNKIKEKLKKIGQKI [Peptide 22]	–	–	–	–	–	–	–	–	–	–	–	–	5.9	4.5 mg/L	0.7 mg/L	>250	6.0 mg/L	>79.1	>250	0.1 mg/L	–
KIKEKLKKIGQKIQGLL [Peptide 26]	–	–	–	–	–	–	–	–	–	–	–	–	5.7	>250 mg/L	1.0 mg/L	>250	>250 mg/L	>79.1	>250	0.4 mg/L	–
KRLRKFRNKIKEKLKKIG [Peptide 20]	–	–	–	–	–	–	–	–	–	–	–	–	2.3	14.9 mg/L	2.9 mg/L	>250	9.7 mg/L	>250	>250	2.3 mg/L	–
KNLRRIIRKIIHIIKKYG [Peptide 8]	–	–	–	–	–	–	–	–	–	–	–	–	2.1	0.77 ± 0.04 mg/L	0.67 ± 0.12 mg/L	20.2	0.84 ± 0.14 mg/L	0.5	0.2	0.45 ± 0.10 mg/L	P. aeruginosa PA-01 MIC, 0 mM NaCl (P. aeruginosa PA-01): 0.83 ± 0.05 mg/L; P. aeruginosa PA-01 MIC, 175 mM NaCl (P. aeruginosa PA-01): 0.82 ± 0.05 mg/L; E. coli DH-5α MIC, 0 mM NaCl (E. coli DH-5α; DH-5α): 0.26 ± 0.05 mg/L; E. coli DH-5α MIC, 175 mM NaCl (E. coli DH-5α; DH-5α): 0.35 ± 0.09 mg/L; MRSA ATCC 33591 MIC, 175 mM NaCl (MRSA ATCC 33591): 0.89 ± 0.05 mg/L; P. aeruginosa MR-3007 MIC, 175 mM NaCl (P. aeruginosa MR 3007): 0.59 ± 0.05 mg/L; S. aureus 930918-3 MIC, 175 mM NaCl (S. aureus 930918-3): 0.86 ± 0.06 mg/L; E. coli ML-35p MIC, 175 mM NaCl (E. coli ML-35p): 0.41 ± 0.06 mg/L
LRRIIRKIIHIIKK-NH2 [Peptide 11]	–	–	–	–	–	–	–	–	–	–	–	–	0.7	4.42 ± 1.73 mg/L	0.92 ± 0.06 mg/L	>79.1	1.38 ± 0.21 mg/L	0.8	0.9	0.63 ± 0.05 mg/L	P. aeruginosa PA-01 MIC, 0 mM NaCl (P. aeruginosa PA-01): 0.96 ± 0.05 mg/L; P. aeruginosa PA-01 MIC, 175 mM NaCl (P. aeruginosa PA-01): 6.51 ± 1.02 mg/L; E. coli DH-5α MIC, 0 mM NaCl (E. coli DH-5α; DH-5α): 0.85 ± 0.04 mg/L; E. coli DH-5α MIC, 175 mM NaCl (E. coli DH-5α; DH-5α): 5.92 ± 1.02 mg/L; MRSA ATCC 33591 MIC, 175 mM NaCl (MRSA ATCC 33591): >79.1 mg/L; P. aeruginosa MR-3007 MIC, 175 mM NaCl (P. aeruginosa MR 3007): 20.1 ± 6.9 mg/L; S. aureus 930918-3 MIC, 175 mM NaCl (S. aureus 930918-3): 16.4 ± 5.1 mg/L; E. coli ML-35p MIC, 175 mM NaCl (E. coli ML-35p): 49.2 ± 15.2 mg/L
KNLRRIIRKIIHIIKKYGPTILRIIRIIG-NH2 [Peptide 28]	–	–	–	–	–	–	–	–	–	–	–	–	0.4	0.32 ± 0.04 mg/L	0.34 ± 0.22 mg/L	17.0	0.55 ± 0.17 mg/L	0.1	0.1	0.16 ± 0.03 mg/L	P. aeruginosa PA-01 MIC, 0 mM NaCl (P. aeruginosa PA-01): 0.53 ± 0.14 mg/L; P. aeruginosa PA-01 MIC, 175 mM NaCl (P. aeruginosa PA-01): 1.17 ± 0.23 mg/L; E. coli DH-5α MIC, 175 mM NaCl (E. coli DH-5α; DH-5α): 0.40 ± 0.09 mg/L; E. coli DH-5α MIC, 0 mM NaCl (E. coli DH-5α; underlay 0 mM NaCl): 0.0042 mg/L; MRSA ATCC 33591 MIC, 175 mM NaCl (MRSA ATCC 33591): 1.57 ± 0.30 mg/L; P. aeruginosa MR-3007 MIC, 175 mM NaCl (P. aeruginosa MR 3007): 0.49 ± 0.06 mg/L; S. aureus 930918-3 MIC, 175 mM NaCl (S. aureus 930918-3): 1.14 ± 0.23 mg/L; E. coli ML-35p MIC, 175 mM NaCl (E. coli ML-35p): 0.58 ± 0.12 mg/L
GLRKRLRKFRNKIKEKLKKIG [Peptide 19]	–	–	–	–	–	–	–	–	–	–	–	–	0.3	19.4 mg/L	0.7 mg/L	>250	1.8 mg/L	0.6	>79.1	2.3 mg/L	–
KRLRKFRNKIKEKLKKIG [CAP18-18]	1.05 ± 0.37 mg/L	1.59 ± 0.29 mg/L	>250 mg/L	14.9 mg/L	0.2 ± 0.03 µM	0.47 ± 0.06 mg/L	3.2 mg/L	2.1 mg/L	29.0 mg/L	9.7 mg/L	1.5 mg/L	2.8 mg/L	–	–	–	–	–	–	–	–	Half-time of Killing (min. avg. ± sem) (P. aeruginosa PAO1 [2]): 19.5 ± 8.2 min
RKRLRKFRNKIKEKLKKIGQKI [CAP18-22]	1.38 ± 0.49 mg/L	0.88 ± 0.12 mg/L	>79.1 mg/L	8.1 mg/L	0.52 ± 0.16 µM	1.47 ± 0.44 mg/L	7.6 mg/L	0.7 mg/L	>79.1 mg/L	7.9 mg/L	1.7 mg/L	0.1 mg/L	–	–	–	–	–	–	–	–	Half-time of Killing (min. avg. ± sem) (P. aeruginosa PAO1 [2]): 9.8 ± 2.5 min
LRKFRNKIKEKLKKIGQKIQG [Peptide 23]	–	–	–	–	–	–	–	–	–	–	–	–	5.5	10.3 mg/L	1.5 mg/L	>250	16.3 mg/L	>79.1	>250	0.2 mg/L	–
LRKFRNKIKEKLKKIGQKI [CAP18-19]	1.65 ± 0.27 mg/L	3.06 ± 0.36 mg/L	>79.1 mg/L	4.5 mg/L	0.96 ± 0.13 µM	2.27 ± 0.30 mg/L	26.7 mg/L	1.0 mg/L	>79.1 mg/L	6.0 mg/L	18.2 mg/L	0.4 mg/L	–	–	–	–	–	–	–	–	Half-time of Killing (min. avg. ± sem) (P. aeruginosa PAO1 [2]): 8.0 ± 1.6 min
GLRKRLRKFRNKIKEKLKKIG [CAP18-21a]	0.58 ± 0.09 mg/L	0.54 ± 0.10 mg/L	>250 mg/L	19.4 mg/L	0.19 ± 0.01 µM	0.48 ± 0.03 mg/L	0.9 mg/L	0.7 mg/L	2.2 mg/L	1.8 mg/L	0.4 mg/L	2.3 mg/L	–	–	–	–	–	–	–	–	Half-time of Killing (min. avg. ± sem) (P. aeruginosa PAO1 [2]): 9.2 ± 3.4 min
